From patent publication US8436039B2, “Inhibitors of the ATB(0,+) transporter and uses thereof” (Georgia Health Sciences University Research Institute, Inc., priority 2008, dated 2013)
Where “and” joins values, the source holds several entries; their conditions need not be identical. Equal entries are not always repeated.

Legend:
[1] = target: T1, human ATB^0,+ (Homo sapiens, UniProt Q9UN76); assay: L-tryptophan-induced inward currents in X. laevis oocytes expressing human ATB^0,+; type: cell-based; conditions: 1 mM added simultaneously with 20 μM L-tryptophan
T1 construct: The human ATB^0,+ cDNA was cloned from an MCF7 cell (a human mammary epithelial cancer cell line) cDNA library; expressed in transfected cells; host or cells: Xenopus laevis oocytes injected with 50 ng capped cRNA
T1 sequence (Q9UN76 1-642): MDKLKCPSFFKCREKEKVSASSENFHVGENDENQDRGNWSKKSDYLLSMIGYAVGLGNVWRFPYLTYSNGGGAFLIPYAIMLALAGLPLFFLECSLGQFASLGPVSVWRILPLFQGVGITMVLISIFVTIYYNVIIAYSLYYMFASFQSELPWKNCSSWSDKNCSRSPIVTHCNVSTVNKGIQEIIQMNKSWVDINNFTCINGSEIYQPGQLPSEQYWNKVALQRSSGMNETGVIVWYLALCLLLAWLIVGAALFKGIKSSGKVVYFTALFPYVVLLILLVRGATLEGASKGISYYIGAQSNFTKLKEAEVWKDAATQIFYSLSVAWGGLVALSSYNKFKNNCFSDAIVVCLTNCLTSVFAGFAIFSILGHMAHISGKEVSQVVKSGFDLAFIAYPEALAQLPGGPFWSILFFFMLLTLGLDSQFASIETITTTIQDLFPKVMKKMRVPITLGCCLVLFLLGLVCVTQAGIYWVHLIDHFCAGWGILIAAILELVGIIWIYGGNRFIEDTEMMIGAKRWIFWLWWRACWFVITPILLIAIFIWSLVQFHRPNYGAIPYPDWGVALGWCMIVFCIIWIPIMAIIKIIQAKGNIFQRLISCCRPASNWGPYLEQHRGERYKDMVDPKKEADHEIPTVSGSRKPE
Method: Capped cRNA from the cloned mouse or human ATB^0,+ cDNA was synthesized using the mMESSAGE mMACHTNE kit (Ambion, Austin, Tex., U.S.A.). Mature oocytes (stage IV or V) from X. laevis were injected with 50 ng of cRNA. Uninjected oocytes served as controls. The oocytes were used for electrophysiological studies 3-6 days after cRNA injection. Electrophysiological studies were performed by the two-microelectrode voltage-clamp method (Nakanishi et al., 2001, J. Physiol. 532, 297-304). Oocytes were superfused with an NaCl-containing buffer (100 mM NaCl, 2 mM KCl, 1 mM MgCl2, 1 mM CaCl2, 3 mM Hepes, 3 mM Mes and 3 mM Tris, pH 7.5), followed by the same buffer containing tryptophan derivatives. The membrane potential was clamped at −50 mV. The differences between the steady-state currents measured in the presence and absence of substrates were considered as the substrate-induced currents. In the analysis of the saturation kinetics of substrate-induced currents, the kinetic parameter K0.5 (i.e. substrate concentration necessary for induction of half-maximal current) was calculated by fitting the values of the substrate-induced currents to the Michaelis-Menten equation. The Na^+ and Cl^− activation kinetics of substrate-induced currents were analysed by measuring the substrate-specific currents in the presence of increasing concentrations of Na^+ (concentration of Cl^− kept constant at 100 mM) or in the presence of increasing concentrations of Cl^− (concentration of Na^+ kept constant at 100 mM). In these experiments, the composition of the superfusion buffer was modified to contain 2 mM potassium gluconate, 1 mM MgSO4 and 1 mM calcium gluconate in place of KCl, MgCl2 and CaCl2 respectively. The data from these experiments were analysed by the Hill equation to determine the Hill coefficient (h; number of Na^+ and Cl^− ions involved in the activation process). The kinetic parameters were determined by using the commercially available computer program Sigma Plot, version 6.0 (SPSS, Chicago, Ill., U.S.A.). […]

[2] = target: T1, human ATB^0,+; assay: Block of inward currents induced by amino acid mixture simulating plasma in X. laevis oocytes expressing human ATB^0,+; type: cell-based
Method: Capped cRNA from the cloned mouse or human ATB^0,+ cDNA was synthesized using the mMESSAGE mMACHTNE kit (Ambion, Austin, Tex., U.S.A.). Mature oocytes (stage IV or V) from X. laevis were injected with 50 ng of cRNA. Uninjected oocytes served as controls. The oocytes were used for electrophysiological studies 3-6 days after cRNA injection. Electrophysiological studies were performed by the two-microelectrode voltage-clamp method (Nakanishi et al., 2001, J. Physiol. 532, 297-304). Oocytes were superfused with an NaCl-containing buffer (100 mM NaCl, 2 mM KCl, 1 mM MgCl2, 1 mM CaCl2, 3 mM Hepes, 3 mM Mes and 3 mM Tris, pH 7.5), followed by the same buffer containing tryptophan derivatives. The membrane potential was clamped at −50 mV. The differences between the steady-state currents measured in the presence and absence of substrates were considered as the substrate-induced currents. In the analysis of the saturation kinetics of substrate-induced currents, the kinetic parameter K0.5 (i.e. substrate concentration necessary for induction of half-maximal current) was calculated by fitting the values of the substrate-induced currents to the Michaelis-Menten equation. The Na^+ and Cl^− activation kinetics of substrate-induced currents were analysed by measuring the substrate-specific currents in the presence of increasing concentrations of Na^+ (concentration of Cl^− kept constant at 100 mM) or in the presence of increasing concentrations of Cl^− (concentration of Na^+ kept constant at 100 mM). In these experiments, the composition of the superfusion buffer was modified to contain 2 mM potassium gluconate, 1 mM MgSO4 and 1 mM calcium gluconate in place of KCl, MgCl2 and CaCl2 respectively. The data from these experiments were analysed by the Hill equation to determine the Hill coefficient (h; number of Na^+ and Cl^− ions involved in the activation process). The kinetic parameters were determined by using the commercially available computer program Sigma Plot, version 6.0 (SPSS, Chicago, Ill., U.S.A.). Uninjected oocytes were used to determine the currents induced by tryptophan derivatives due to entry via transporters that may be constitutively expressed in the oocytes. At a concentration of 2.5 mM, the currents induced by these compounds were in the range of 0-3 nA in uninjected oocytes. These currents were less than 2% of the corresponding currents induced in ATB^0,+ cRNA-injected oocytes. Therefore the endogenous currents associated with the constitutively expressed transporters were not considered in the analysis of kinetic parameters of ATB^0,+ transport activity.
These studies with α-methyl-DL-tryptophan as a blocker of ATB^0,+ were carried out with L-tryptophan at sub-saturating concentrations. […] Therefore, using the Xenopus oocyte heterologous expression system, we monitored the transport activity of human ATB^0,+ in the presence of an amino acid mixture consisting of 18 different amino acids, each at its respective physiological concentration found in plasma (Glew et al., 2004, Clin. Chim. Acta 342, 179-185) (Table 1). Inward currents were detected under these conditions in oocytes expressing human ATB^0,+. […] We then monitored the ability of α-methyl-DL-tryptophan to block the inward currents induced by the same mixture of amino acids in oocytes expressing human ATB^0,+ (FIG. 4B). […]

| SMILES | effect on inward currents induced by 20 μM L-tryptophan [1] | inhibition at 2500 µM ([2]; 2.5 mM, 18 amino acids at plasma concentrations, read-out: maximal inhibition of amino acid mixture-induced currents) [%] | IC50 ([2]; 18 amino acids at normal plasma concentrations, read-out: concentration necessary to elicit 50% of maximal inhibition (IC50) of amino acid mixture-induced currents) |
| --- | --- | --- | --- |
| Cn1cc(CC(N)C(=O)O)c2ccccc21 (racemic) [1-methyl-DL-tryptophan] | greater than that with 20 μM L-tryptophan alone | – | – |
| CC(N)(Cc1c[nH]c2ccccc12)C(=O)O (racemic) [α-methyl-DL-tryptophan] | blocked completely | ~85 | ~250 µM and 255 µM |
